According to PubChem BioAssay (NCI):
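96-well plates; 48 h exposure; 5 concentrations. Endpoints by linear interpolation between flanking doses. Not reached: highest tested concentration assigned. Abbreviation: GI50, concentration required for 50% inhibition of growth. TGI denotes the concentration required for complete inhibition of growth.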

What was measured:
Assay in all cases: NCI anticancer screen, dose series, 48 h
[1] = system: 786-0 renal
[2] = system: A498 renal
[3] = system: A549 NSCLC
[4] = system: ACHN renal
[5] = system: BT-549 breast
[6] = system: CCRF-CEM leukemia
[7] = system: DU-145 prostate
[8] = system: EKVX NSCLC
[9] = system: HCC-2998 colon
[10] = system: HCT-116 colon
[11] = system: HCT-15 colon
[12] = system: HOP-62 NSCLC
[13] = system: HOP-92 NSCLC
[14] = system: HS 578T breast
[15] = system: IGROV1 ovarian
[16] = system: K-562 leukemia
[17] = system: KM12 colon
[18] = system: M14 melanoma
[19] = system: MCF7 breast
[20] = system: MDA-MB-231 breast
[21] = system: MDA-MB-435
[22] = system: MOLT-4 leukemia
[23] = system: NCI-H226 lung
[24] = system: NCI-H460 lung
[25] = system: NCI/ADR-RES ovarian
[26] = system: OVCAR-3 ovarian
[27] = system: PC-3 prostate
[28] = system: RXF 393 renal
[29] = system: SF-268 CNS
[30] = system: SF-295 CNS
[31] = system: SF-539 CNS
[32] = system: SK-MEL-2 melanoma
[33] = system: SN12C renal
[34] = system: SNB-19 CNS
[35] = system: SNB-75 CNS
[36] = system: SR leukemia
[37] = system: SW-620 colon
[38] = system: T-47D breast
[39] = system: TK-10 renal
[40] = system: U251 CNS
[41] = system: UO-31 renal
[42] = system: CAKI-1 renal
[43] = system: COLO 205 colon
[44] = system: HL-60(TB) leukemia
[45] = system: HT29 colon
[46] = system: LOX IMVI melanoma
[47] = system: MALME-3M melanoma
[48] = system: NCI-H23 lung
[49] = system: NCI-H522 lung
[50] = system: OVCAR-4 ovarian
[51] = system: OVCAR-5 ovarian
[52] = system: OVCAR-8 ovarian
[53] = system: RPMI-8226 leukemia
[54] = system: SK-MEL-28 melanoma
[55] = system: SK-MEL-5 melanoma
[56] = system: SK-OV-3 ovarian
[57] = system: UACC-257 melanoma
[58] = system: UACC-62 melanoma

COc1ccc(-c2csc(NC(=O)N3CCN(c4cc5c(cc4F)c(=O)c(C(=O)O)cn5C4CC4)CC3)n2)cc1
GI50 [1]: 1460 nM | TGI [1]: 19600 nM | GI50 [2]: 2590 nM | TGI [2]: 15600 nM | GI50 [3]: 3430 nM | TGI [3]: > 100000 nM | GI50 [4]: 2660 nM | TGI [4]: > 100000 nM | GI50 [5]: 616 nM | TGI [5]: 6640 nM | GI50 [6]: 1430 nM | TGI [6]: 13100 nM | GI50 [7]: 1720 nM | TGI [7]: > 100000 nM | GI50 [8]: 3110 nM | TGI [8]: > 100000 nM | GI50 [9]: 3830 nM | TGI [9]: > 100000 nM | GI50 [10]: 1720 nM | TGI [10]: > 100000 nM | GI50 [11]: 2860 nM | TGI [11]: > 100000 nM | GI50 [12]: 3020 nM | TGI [12]: 32600 nM | GI50 [13]: 1600 nM | TGI [13]: 6560 nM | GI50 [14]: 2940 nM | TGI [14]: > 100000 nM | GI50 [15]: 2360 nM | TGI [15]: > 100000 nM | GI50 [16]: 2710 nM | TGI [16]: 14900 nM | GI50 [17]: 1630 nM | TGI [17]: > 100000 nM | GI50 [18]: 2310 nM | TGI [18]: > 100000 nM | GI50 [19]: 2600 nM | TGI [19]: > 100000 nM | GI50 [20]: 2710 nM | TGI [20]: > 100000 nM | GI50 [21]: 2540 nM | TGI [21]: > 100000 nM | GI50 [22]: 2540 nM | TGI [22]: 9420 nM | GI50 [23]: 2950 nM | TGI [23]: > 100000 nM | GI50 [24]: 1290 nM | TGI [24]: > 100000 nM | GI50 [25]: 5870 nM | TGI [25]: > 100000 nM | GI50 [26]: 890 nM | TGI [26]: 17900 nM | GI50 [27]: 2980 nM | TGI [27]: > 100000 nM | GI50 [28]: 3030 nM | TGI [28]: 23400 nM | GI50 [29]: 1230 nM | TGI [29]: > 100000 nM | GI50 [30]: 2250 nM | TGI [30]: 8790 nM | GI50 [31]: 1800 nM | TGI [31]: > 100000 nM | GI50 [32]: 2420 nM | TGI [32]: 7100 nM | GI50 [33]: 1490 nM | TGI [33]: > 100000 nM | GI50 [34]: 3290 nM | TGI [34]: > 100000 nM | GI50 [35]: 2470 nM | TGI [35]: 17400 nM | GI50 [36]: 1930 nM | TGI [36]: 13000 nM | GI50 [37]: 5040 nM | TGI [37]: > 100000 nM | GI50 [38]: 1570 nM | TGI [38]: > 100000 nM | GI50 [39]: 6930 nM | TGI [39]: 37000 nM | GI50 [40]: 660 nM | TGI [40]: 16800 nM | GI50 [41]: 1620 nM | TGI [41]: > 100000 nM

CCCCNC(=O)Oc1ccc2c(=O)c3sc4c(=O)c5ccccc5c(=O)c4c3c(=O)c2c1
GI50 [1]: 1770 nM | TGI [1]: 4230 nM | GI50 [2]: 1040 nM | TGI [2]: 2220 nM | GI50 [3]: 209 nM | TGI [3]: 481 nM | GI50 [4]: 874 nM | TGI [4]: 2180 nM | GI50 [5]: 154 nM | TGI [5]: 293 nM | GI50 [42]: 1240 nM | TGI [42]: 2860 nM | GI50 [6]: 2000 nM | TGI [6]: 6830 nM | GI50 [43]: 1810 nM | TGI [43]: 3500 nM | GI50 [7]: 158 nM | TGI [7]: 294 nM | GI50 [8]: 1380 nM | TGI [8]: 3570 nM | GI50 [9]: 511 nM | TGI [9]: 2010 nM | GI50 [10]: 334 nM | TGI [10]: 1760 nM | GI50 [11]: 160 nM | TGI [11]: 360 nM | GI50 [44]: 3110 nM | TGI [44]: > 100000 nM | GI50 [12]: 144 nM | TGI [12]: 277 nM | GI50 [14]: 279 nM | TGI [14]: 860 nM | GI50 [45]: 2310 nM | TGI [45]: 5600 nM | GI50 [15]: 2230 nM | TGI [15]: 6720 nM | GI50 [16]: 937 nM | TGI [16]: 11500 nM | GI50 [17]: 2000 nM | TGI [17]: 9210 nM | GI50 [46]: 327 nM | TGI [46]: 1750 nM | GI50 [18]: 97.6 nM | TGI [18]: 225 nM | GI50 [47]: 117 nM | TGI [47]: 273 nM | GI50 [19]: 429 nM | TGI [19]: 2180 nM | GI50 [20]: 1390 nM | TGI [20]: 5910 nM | GI50 [21]: 172 nM | TGI [21]: 328 nM | GI50 [22]: 2170 nM | TGI [22]: 6570 nM | GI50 [23]: 1120 nM | TGI [23]: 2470 nM | GI50 [48]: 188 nM | TGI [48]: 583 nM | GI50 [24]: 195 nM | TGI [24]: 395 nM | GI50 [49]: 379 nM | TGI [49]: 1640 nM | GI50 [25]: 1580 nM | TGI [25]: 8430 nM | GI50 [26]: 299 nM | TGI [26]: 977 nM | GI50 [50]: 977 nM | TGI [50]: 2150 nM | GI50 [51]: 2020 nM | TGI [51]: 4550 nM | GI50 [52]: 1440 nM | TGI [52]: 4760 nM | GI50 [53]: 1160 nM | TGI [53]: 4420 nM | GI50 [28]: 1200 nM | TGI [28]: 2540 nM | GI50 [29]: 1100 nM | TGI [29]: 3560 nM | GI50 [30]: 176 nM | TGI [30]: 373 nM | GI50 [31]: 235 nM | TGI [31]: 767 nM | GI50 [32]: 1370 nM | TGI [32]: 3300 nM | GI50 [54]: 224 nM | TGI [54]: 524 nM | GI50 [55]: 103 nM | TGI [55]: 224 nM | GI50 [56]: 1400 nM | TGI [56]: 2800 nM | GI50 [33]: 174 nM | TGI [33]: 350 nM | GI50 [34]: 287 nM | TGI [34]: 1050 nM | GI50 [35]: 189 nM | TGI [35]: 421 nM | GI50 [36]: 770 nM | TGI [36]: > 100000 nM | GI50 [37]: 409 nM | TGI [37]: 1580 nM | GI50 [38]: 2110 nM | TGI [38]: 5400 nM | GI50 [39]: 2190 nM | TGI [39]: 3780 nM | GI50 [40]: 1020 nM | TGI [40]: 2260 nM | GI50 [57]: 237 nM | TGI [57]: 700 nM | GI50 [58]: 170 nM | TGI [58]: 336 nM | GI50 [41]: 699 nM | TGI [41]: 2660 nM
